Results as given in article PMC9606102, “[^89Zr]Zr-PSMA-617 PET/CT in biochemical recurrence of prostate cancer: first clinical experience from a pilot study including biodistribution and dose estimates” (European Journal of Nuclear Medicine and Molecular Imaging, 2022).

Legend:
[1] = test system: prostate cancer lesions; assay: [^68Ga]Ga-PSMA-11 PET/CT findings in the same patients; assay type: in vivo, human (patients); settings: for SUVmax of undetermined finding: 1 h p.i.
Method: The time interval between both, [^89Zr]Zr-PSMA-617 and [^68Ga]Ga-PSMA-11 PET/CT, was 31 ± 18 days (range 5–49 days), with no treatment performed in between. Prostate-specific antigen (PSA) serum level at time of imaging ranged from 0.43 to 1.92 ng/ml. All patients were initially treated with radical prostatectomy (RP). Initial Gleason score ranged from 7a to 9. Four patients underwent salvage treatments such as androgen-deprivation therapy (ADT), lymphadenectomy (LA) or radiation therapy (RT). Detailed patient characteristics including age, Gleason score, primary therapy, salvage therapies, time from initial diagnosis (ID) of prostate cancer, PSA and PSA doubling time (DT) are presented in Table 1. [^89Zr]Zr-PSMA-617 PET/CT imaging was performed on a compassionate use basis under the German Pharmaceutical Act §13 (2b). The medical indication for the examination and the labeling of the tracer were under the direct responsibility of the applying physician. Patients gave their written consent after being thoroughly informed about the general risks of both radiation exposure and application of a novel PET tracer including possible adverse effects of, e.g., therapeutic PSMA tracers. Furthermore, all patients agreed to the publication of the resulting data in accordance with the Declaration of Helsinki.

[2] = set-up: method as in PMID 34326129; settings: cited from earlier work

O=C([O-])CN(CCN(CC(=O)[O-])Cc1cc(CCC(=O)NCCCCCC(=O)NCCCC[C@H](NC(=O)N[C@@H](CCC(=O)O)C(=O)O)C(=O)O)ccc1[O-])Cc1cc(CCC(=O)O)ccc1[O-].[68Ga+3].[OH3+] [[^68Ga]Ga-PSMA-11]
Findings on [^68Ga]Ga-PSMA-11 PET/CT ([1]; Pt. no 1, PSA 1.92 ng/ml): No suspicious findings
Findings on [^68Ga]Ga-PSMA-11 PET/CT ([1]; Pt. no 2, PSA 1.75 ng/ml): 1 × LNM + undetermined finding (suspicion of right iliac LNM)
Findings on [^68Ga]Ga-PSMA-11 PET/CT ([1]; Pt. no 3, PSA 0.66 ng/ml): No suspicious findings
Findings on [^68Ga]Ga-PSMA-11 PET/CT ([1]; Pt. no 4, PSA 1.77 ng/ml): Undetermined finding (suspicion of peritoneal metastasis)
Findings on [^68Ga]Ga-PSMA-11 PET/CT ([1]; Pt. no 5, PSA 0.63 ng/ml): No suspicious findings
Findings on [^68Ga]Ga-PSMA-11 PET/CT ([1]; Pt. no 6, PSA 0.43 ng/ml): Undetermined finding (suspicion of local recurrence in seminal vesicle bed)
Findings on [^68Ga]Ga-PSMA-11 PET/CT ([1]; Pt. no 7, PSA 0.68 ng/ml): No suspicious findings
SUVmax of undetermined finding ([1]; patient no. 2, pelvic tracer uptake, considered as unspecific uptake): 4.47
SUVmax of undetermined finding ([1]; patient no. 4, faint uptake in peritoneal lesion): 2.06

[^89Zr]Zr-PSMA-DFO
Effective dose [2]: 0.15 ± 0.04 mSv/MBq
